pIC50: −log10 of the molar value. Like-named read-outs stand apart in the source and are kept apart here.
Key:
[1] = molecular target: T1, CYCLIN K (Homo sapiens, UniProt O75909); experiment: CYCLIN K nuclear protein level: immunofluorescence/high content analysis in CAL-120 cells; assay type: cell-based; settings: 24 h, nuclear CCNK staining intensity, median, read-out: CYCLIN K degradation IF, DC50- [mol/l] (median)
T1 construct: endogenous in cells; host or cells: CAL-120 human breast cancer cells (DSMZ ACC 459)
T1 sequence (O75909 whole entry): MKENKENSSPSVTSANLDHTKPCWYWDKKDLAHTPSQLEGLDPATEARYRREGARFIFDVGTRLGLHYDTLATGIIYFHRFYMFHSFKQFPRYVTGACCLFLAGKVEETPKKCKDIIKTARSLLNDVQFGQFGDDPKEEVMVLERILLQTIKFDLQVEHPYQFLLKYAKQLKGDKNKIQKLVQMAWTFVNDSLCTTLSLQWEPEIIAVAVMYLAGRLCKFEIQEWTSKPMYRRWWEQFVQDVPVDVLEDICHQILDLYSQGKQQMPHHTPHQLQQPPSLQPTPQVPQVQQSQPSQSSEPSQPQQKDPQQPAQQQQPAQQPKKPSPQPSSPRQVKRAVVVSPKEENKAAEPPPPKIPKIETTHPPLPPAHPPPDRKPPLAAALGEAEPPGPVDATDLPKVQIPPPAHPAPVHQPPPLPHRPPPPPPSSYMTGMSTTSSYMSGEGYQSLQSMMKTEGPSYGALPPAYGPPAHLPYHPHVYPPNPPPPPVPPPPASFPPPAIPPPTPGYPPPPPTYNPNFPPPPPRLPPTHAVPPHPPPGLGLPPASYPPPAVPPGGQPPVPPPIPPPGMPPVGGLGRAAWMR
T1 sequence (Q9NYV4 whole entry partner): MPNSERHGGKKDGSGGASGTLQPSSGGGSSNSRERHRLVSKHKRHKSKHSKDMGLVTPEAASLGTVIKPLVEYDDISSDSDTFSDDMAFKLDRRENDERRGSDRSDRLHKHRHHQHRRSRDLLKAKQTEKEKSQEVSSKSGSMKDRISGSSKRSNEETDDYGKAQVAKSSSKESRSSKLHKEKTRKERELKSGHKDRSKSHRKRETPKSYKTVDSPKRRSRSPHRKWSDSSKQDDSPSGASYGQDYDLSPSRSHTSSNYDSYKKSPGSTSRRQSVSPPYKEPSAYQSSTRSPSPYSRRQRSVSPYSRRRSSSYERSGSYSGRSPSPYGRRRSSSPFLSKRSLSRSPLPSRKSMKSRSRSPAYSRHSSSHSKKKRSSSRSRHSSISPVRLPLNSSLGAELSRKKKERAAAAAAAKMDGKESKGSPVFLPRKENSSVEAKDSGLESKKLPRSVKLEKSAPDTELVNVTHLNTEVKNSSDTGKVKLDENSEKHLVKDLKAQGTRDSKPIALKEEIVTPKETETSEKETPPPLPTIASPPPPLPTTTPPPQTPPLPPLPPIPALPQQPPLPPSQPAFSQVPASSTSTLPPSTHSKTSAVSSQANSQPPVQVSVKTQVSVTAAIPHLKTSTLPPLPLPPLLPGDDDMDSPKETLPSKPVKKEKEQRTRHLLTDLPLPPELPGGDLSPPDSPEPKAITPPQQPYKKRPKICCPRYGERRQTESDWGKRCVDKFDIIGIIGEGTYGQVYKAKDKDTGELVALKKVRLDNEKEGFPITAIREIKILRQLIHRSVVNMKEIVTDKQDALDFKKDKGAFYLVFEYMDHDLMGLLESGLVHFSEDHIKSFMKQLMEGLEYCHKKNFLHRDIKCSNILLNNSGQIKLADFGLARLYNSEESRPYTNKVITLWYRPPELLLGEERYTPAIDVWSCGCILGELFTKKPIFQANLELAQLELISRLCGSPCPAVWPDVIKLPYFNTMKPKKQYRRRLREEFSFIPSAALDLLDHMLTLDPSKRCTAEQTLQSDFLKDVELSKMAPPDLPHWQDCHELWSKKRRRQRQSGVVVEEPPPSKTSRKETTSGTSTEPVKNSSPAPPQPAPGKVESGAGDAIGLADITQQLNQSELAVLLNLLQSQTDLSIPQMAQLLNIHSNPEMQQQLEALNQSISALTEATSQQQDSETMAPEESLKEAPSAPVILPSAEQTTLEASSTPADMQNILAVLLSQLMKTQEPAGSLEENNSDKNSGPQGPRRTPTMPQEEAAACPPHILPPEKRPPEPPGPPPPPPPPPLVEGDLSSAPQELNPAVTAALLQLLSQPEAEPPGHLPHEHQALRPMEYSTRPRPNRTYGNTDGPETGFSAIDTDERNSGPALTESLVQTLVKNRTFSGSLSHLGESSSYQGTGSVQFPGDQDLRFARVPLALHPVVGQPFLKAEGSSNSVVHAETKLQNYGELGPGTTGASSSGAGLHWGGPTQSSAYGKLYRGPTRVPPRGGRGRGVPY
Procedure: 7. CYCLIN K Nuclear Protein Level: Immunofluorescence/High Content Analysis
In the context of the present invention, the term “DC50 Cyclin K” refers to the DC50 values obtained according to the assay described in this section (7) herein below, i.e. the DC50 values for the degradation of Cyclin K.
CAL-120 human breast cancer cells (DSMZ ACC 459) are seeded in 1536-well microtiter plates (800 cells per well) containing 50 nanoL of compounds in Dose-Response. Control wells received DMSO or Reference Example 1. Plates are then incubated for 24 h at 37° C. in an humidified incubator and fixed with 4% PFA for 10 min. Then immunofluorescence (IF) against CYCLIN K (ThermoFisher Scientific CCNK Antibody # PA5-85020, rabbit, 1:200 dilution) is performed using standard IF protocols. Cells are then stained with Hoechst 33342 (Life Technologies, H-1399, 0.1 microg/mL) and imaged on an automated confocal microscopy system (e.g. Perkin Elmer Opera Phenix). Nuclear and cytoplasmic intensity as well as the nuclear/cytoplasmic intensity ratio is determined by automated image analysis using custom generated scripts (MetaXpress). Data is then transferred to Genedata Screener software, normalized to DMSO and control and DC50 values (degrading concentration to achieve 50% reduction of nuclear CCNK staining intensity relative to controls) are reported.

[2] = test system: MDA-MB-231 human breast cancer cells; experiment: Proliferation assay MDA-MB-231 (crystal violet); assay type: cell-based; settings: MDA-MB-231 cells, 4 days, median, read-out: Prolif-MDA MB231 IC50 - [mol/l] (median)
Procedure: 4. Proliferation assay: MDA-MB-231, CAL-120
Human tumour cells were originally obtained from the American Type Culture Collection (ATCC), or from the Deutsche Sammlung von Mikroorganismen and Zellkulturen (DSMZ, German Collection of Microorganisms and Cell Cultures). Cultivated tumour cells (CAL-120, human breast adenocarcinoma cells, DSMZ ACC-459; MDA-M B-231, human breast cancer cells, ATCC HTB-26) were plated at a density of 4,000 cells/well in a 96-well multititer plate in 200 microL of their respective growth medium supplemented 10% fetal calf serum. After 24 hours, the cells of one plate (zero-point plate) were stained with crystal violet (see below), while the medium of the other plates was supplemented with the test substances in various concentrations (0 micromol/L, as well as in the range of 0.01-10 micromol/L; the final concentration of the solvent dimethyl sulfoxide was adjusted to 0.1%) using a Tecan HP D300 Digital Dispenser. The cells were incubated for 4 days in the presence of test substances. Cell proliferation was determined by staining the cells with crystal violet: the cells were fixed by adding 20 microL/measuring point of an 11% glutaric aldehyde solution for 15 minutes at room temperature. After three washing cycles of the fixed cells with water, the plates were dried at room temperature. The cells were stained by adding 100 microL/measuring point of a 0.1% crystal violet solution (pH 3.0). After three washing cycles of the stained cells with water, the plates were dried at room temperature. The dye was dissolved by adding 100 microL/measuring point of a 10% acetic acid solution. The extinction was determined by photometry at a wavelength of 595 nm. The change of cell number, in percent, was calculated by normalization of the measured values to the extinction values of the zero-point plate(=0%) and the extinction of the untreated (0 μM) cells(=100%). The IC50 values (inhibitory concentration at 50% of maximal effect) were determined by means of a 4 parameter fit.

Row | Compound | DC50 [1] [nM] | pIC50 ([2]; Homo sapiens, MDA-MB-231, 96 h) | pIC50 [2]
1 | Fc1ccc2[nH]c(CNc3nn(C4CCOCC4)c4nc(C5CC5)cnc34)nc2c1F [Example 32, 6-cyclopropyl-N-[(4,5-difluoro-1H-benzimidazol-2-yl)methyl]-1-(oxan-4-yl)-1H-pyrazolo[3,4-b]pyrazin-3-amine] | 0.877 | 8.26 | 
2 | CN1CCC(n2nc(NCc3nc4cc(Cl)c(Cl)cc4[nH]3)c3ncc(C4CC4)nc32)CC1 [Example 19, 6-cyclopropyl-N-[(5,6-dichloro-1H-benzimidazol-2-yl)methyl]-1-(1-methylpiperidin-4-yl)-1H-pyrazolo[3,4-b]pyrazin-3-amine] | 0.339 | 8.32 | 
3 | CN1CCC(n2nc(NCc3nc4c(F)cccc4[nH]3)c3ncc(C4CC4)nc32)CC1 [Example 3, 6-cyclopropyl-N-[(4-fluoro-1H-benzimidazol-2-yl)methyl]-1-(1-methylpiperidin-4-yl)-1H-pyrazolo[3,4-b]pyrazin-3-amine] | 1.15 | 8.43 | 
4 | CC1COCCC1n1nc(NCc2nc3ccccc3[nH]2)c2ncc(C3CC3)nc21 (racemic) [Example 42, (±)-cis/trans-N-[(1H-benzimidazol-2-yl)methyl]-6-cyclopropyl-1-(3-methyloxan-4-yl)-1H-pyrazolo[3,4-b]pyrazin-3-amine] | 17.2 | 6.83 | 
5 | CC(C)(O)CCn1nc(NCc2nc3ccccc3[nH]2)c2ncc(C3CC3)nc21 [Example 76, 4-(3-{[(1H-benzimidazol-2-yl)methyl]amino}-6-cyclopropyl-1H-pyrazolo[3,4-b]pyrazin-1-yl)-2-methylbutan-2-ol] | 8.11 | 6.91 | 
6 | c1ccc2[nH]c(CNc3nn(C4CCOCC4)c4nc(C5CC5)cnc34)nc2c1 [Example 16, N-[(1H-benzimidazol-2-yl)methyl]-6-cyclopropyl-1-(oxan-4-yl)-1H-pyrazolo[3,4-b]pyrazin-3-amine] | > 677 | 7.15 | 
7 | c1ccc2[nH]c(CNc3nn(C4CCCC4)c4nc(C5CC5)cnc34)nc2c1 [Example 39, N-[(1H-benzimidazol-2-yl)methyl]-1-cyclopentyl-6-cyclopropyl-1H-pyrazolo[3,4-b]pyrazin-3-amine] | 38.7 | 6.50 | 
8 | CN1CCC(n2nc(NCc3nc4cc(C(F)(F)F)ccc4[nH]3)c3ncc(C4CC4)nc32)CC1 [Example 25, 6-cyclopropyl-1-(1-methylpiperidin-4-yl)-N-{[5-(trifluoromethyl)-1H-benzimidazol-2-yl]methyl}-1H-pyrazolo[3,4-b]pyrazin-3-amine] | 0.543 | 8.29 | 
9 | COCCC(C)n1nc(NCc2nc3ccccc3[nH]2)c2ncc(C3CC3)nc21 (single isomer, unassigned; (-)) [Example 58, (−)-N-[(1H-benzimidazol-2-yl)methyl]-6-cyclopropyl-1-[4-methoxybutan-2-yl]-1H-pyrazolo[3,4-b]pyrazin-3-amine] | 15.6 |  | 6.67
10 | c1ccc2[nH]c(CNc3nn(C4CCOC4)c4nc(C5CC5)cnc34)nc2c1 (racemic) [Example 10, (±)-N-[(1H-benzimidazol-2-yl)methyl]-6-cyclopropyl-1-[oxolan-3-yl]-1H-pyrazolo[3,4-b]pyrazin-3-amine] | 159 | 6.82 | 
11 | O[C@H]1CC[C@H](n2nc(NCc3nc4ccccc4[nH]3)c3ncc(C4CC4)nc32)CC1 [Example 50, trans-4-(3-{[(1H-benzimidazol-2-yl)methyl]amino}-6-cyclopropyl-1H-pyrazolo[3,4-b]pyrazin-1-yl)cyclohexan-1-ol] | 3.27 | 7.82 | 
12 | CN1CCC(n2nc(NCc3nc4cc(F)ccc4[nH]3)c3ncc(C4CC4)nc32)CC1 [Example 4, 6-cyclopropyl-N-[(5-fluoro-1H-benzimidazol-2-yl)methyl]-1-(1-methylpiperidin-4-yl)-1H-pyrazolo[3,4-b]pyrazin-3-amine] | 0.914 | 7.29 | 
13 | COc1cccc2[nH]c(CNc3nn(C4CCN(C)CC4)c4nc(C5CC5)cnc34)nc12 [Example 2, 6-cyclopropyl-N-[(4-methoxy-1H-benzimidazol-2-yl)methyl]-1-(1-methylpiperidin-4-yl)-1H-pyrazolo[3,4-b]pyrazin-3-amine] | 0.704 | 7.97 | 
14 | OC[C@H]1C[C@@H](n2nc(NCc3nc4ccccc4[nH]3)c3ncc(C4CC4)nc32)C1 [Example 47, [cis-3-(3-{[(1H-benzimidazol-2-yl)methyl]amino}-6-cyclopropyl-1H-pyrazolo[3,4-b]pyrazin-1-yl)cyclobutyl]methanol] | 6.29 | 7.29 | 
15 | CC(C)(O)Cn1nc(NCc2nc3ccccc3[nH]2)c2ncc(C3CC3)nc21 [Example 69, 1-(3-{[(1H-benzimidazol-2-yl)methyl]amino}-6-cyclopropyl-1H-pyrazolo[3,4-b]pyrazin-1-yl)-2-methylpropan-2-ol] | 34.1 | 6.51 | 
16 | CN1CCC(n2nc(NCc3nc4c(C(F)(F)F)cccc4[nH]3)c3ncc(C4CC4)nc32)CC1 [Example 7, 6-cyclopropyl-1-(1-methylpiperidin-4-yl)-N-{[4-(trifluoromethyl)-1H-benzimidazol-2-yl]methyl}-1H-pyrazolo[3,4-b]pyrazin-3-amine] | 2.62 | 7.41 | 
17 | CC1CC(n2nc(NCc3nc4ccccc4[nH]3)c3ncc(C4CC4)nc32)CCN1C (racemic) [Example 41, (±)-cis/trans-N-[(1H-benzimidazol-2-yl)methyl]-6-cyclopropyl-1-(1,2-dimethylpiperidin-4-yl)-1H-pyrazolo[3,4-b]pyrazin-3-amine] | 2.3 | 7.17 | 
18 | COc1cccc2[nH]c(CNc3nn(C4CCOCC4)c4nc(C5CC5)cnc34)nc12 [Example 24, 6-cyclopropyl-N-[(4-methoxy-1H-benzimidazol-2-yl)methyl]-1-(oxan-4-yl)-1H-pyrazolo[3,4-b]pyrazin-3-amine] | 1.22 | 7.91 | 
19 | CC1CC(n2nc(NCc3nc4ccccc4[nH]3)c3ncc(C4CC4)nc32)CCO1 (racemic) [Example 44, (±)-cis/trans-N-[(1H-benzimidazol-2-yl)methyl]-6-cyclopropyl-1-(2-methyloxan-4-yl)-1H-pyrazolo[3,4-b]pyrazin-3-amine] | 13.5 | 7.42 | 
20 | O[C@H]1C[C@H](Cn2nc(NCc3nc4ccccc4[nH]3)c3ncc(C4CC4)nc32)C1 [Example 70, trans-3-[(3-{[(1H-benzimidazol-2-yl)methyl]amino}-6-cyclopropyl-1H-pyrazolo[3,4-b]pyrazin-1-yl)methyl]cyclobutan-1-ol] | 11.6 | 6.76 | 
21 | c1ccc2[nH]c(CNc3nn(CC4CCC4)c4nc(C5CC5)cnc34)nc2c1 [Example 75, N-[(1H-benzimidazol-2-yl)methyl]-1-(cyclobutylmethyl)-6-cyclopropyl-1H-pyrazolo[3,4-b]pyrazin-3-amine] | 124 | 6.42 | 
22 | CN1CCCC(n2nc(NCc3nc4ccccc4[nH]3)c3ncc(C4CC4)nc32)CC1 (single isomer, unassigned) [Example 37, (+) or (−)-N-[(1H-benzimidazol-2-yl)methyl]-6-cyclopropyl-1-[(4R*)-1-methylazepan-4-yl]-1H-pyrazolo[3,4-b]pyrazin-3-amine] | 1.72 |  | 7.82
23 | COCCn1nc(NCc2nc3ccccc3[nH]2)c2ncc(C3CC3)nc21 [Example 65, N-[(1H-benzimidazol-2-yl)methyl]-6-cyclopropyl-1-(2-methoxyethyl)-1H-pyrazolo[3,4-b]pyrazin-3-amine] | 37.4 | 6.36 | 
